Twelve compounds from PubChem BioAssay (NCI) can be followed below.

Some test systems named below: A549 NSCLC; HCT-15 colon; HOP-62 NSCLC; K-562 leukemia; MOLT-4 leukemia; NCI/ADR-RES ovarian; OVCAR-3 ovarian; OVCAR-8 ovarian; SK-OV-3 ovarian; SNB-19 CNS.
What all share (experiment): NCI-60 cell line screen, 48 h

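Briefly, cells in 96-well plates were exposed to five compound concentrations for 48 h, and endpoints were estimated by linear interpolation. GI50 marks 50% less growth. TGI: total growth inhibition.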 Where a SMILES comes first, the peptide text is derived from it. [ ]: non-standard residue; d: D form. The star is where a group is joined. hSer = N[CH](CCO)C(=O)O; Boc = CC(C)(C)OC(=O)*

For the compound `COC(=O)[C@]1(C)CCCn2c(=O)n(-c3ccccc3)c(=O)n21`, the TGI in the assay with A549 NSCLC, in the assay with HCT-15 colon, with HOP-62 NSCLC, in the assay with K-562 leukemia, with MOLT-4 leukemia and in the assay on NCI/ADR-RES ovarian was more than 100 µM in each case. Further, the TGI in the assay on OVCAR-3 ovarian, in the assay with OVCAR-8 ovarian, with SK-OV-3 ovarian and in the assay with SNB-19 CNS was more than 100 µM each time.
As for `O=C(NCc1cn(Cc2cccc(Oc3ccccc3)c2)nn1)c1cccnc1Nc1ccccc1`, the GI50 in the assay with A549 NSCLC was 4.81 µM; in the assay with HCT-15 colon, 3.81 µM; with HOP-62 NSCLC it was 5.58 µM; in the assay on K-562 leukemia, 3.69 µM; in the assay with MOLT-4 leukemia, 3.74 µM; with NCI/ADR-RES ovarian, 2.47 µM. The GI50 in the assay with OVCAR-3 ovarian was 2.28 µM; in the assay on OVCAR-8 ovarian, 4.39 µM; with SK-OV-3 ovarian, 3.79 µM; with SNB-19 CNS, 3.27 µM. The TGI in the assay on A549 NSCLC was 95.2 µM; with HCT-15 colon, more than 100 µM; in the assay on HOP-62 NSCLC, more than 100 µM; in the assay on K-562 leukemia it was more than 100 µM; with MOLT-4 leukemia, more than 100 µM; with NCI/ADR-RES ovarian, more than 100 µM. Also, the TGI in the assay on OVCAR-3 ovarian is 5.46 µM; in the assay on OVCAR-8 ovarian it was more than 100 µM; with SK-OV-3 ovarian it was 15.1 µM; with SNB-19 CNS it was more than 100 µM.
For `CN1CC(c2ccccc2)=Cc2c1ccc(N)c2N=N`, the TGI with A549 NSCLC, in the assay with HCT-15 colon, in the assay with HOP-62 NSCLC, with K-562 leukemia, in the assay with MOLT-4 leukemia and with NCI/ADR-RES ovarian was more than 100 µM throughout. Further, the TGI with OVCAR-3 ovarian, with OVCAR-8 ovarian, with SK-OV-3 ovarian and in the assay with SNB-19 CNS was more than 100 µM each time.
For `CN(C)CC1CCC/C(=C\c2ccc(N(C)C)cc2)C1=O` (stereo not given), the TGI in the assay with A549 NSCLC was 32.1 µM; in the assay with HCT-15 colon, 16.1 µM; in the assay on HOP-62 NSCLC, 33 µM; with K-562 leukemia, more than 100 µM; with MOLT-4 leukemia, more than 100 µM; with NCI/ADR-RES ovarian, 65.3 µM. Besides, the TGI in the assay on OVCAR-3 ovarian was 9.36 µM; with OVCAR-8 ovarian it was 18 µM; with SK-OV-3 ovarian, 31.7 µM; with SNB-19 CNS, 31.9 µM.
For the compound `Cc1cc(-c2ccc(C(=O)C(Cl)(Cl)Cl)[nH]2)on1`, the TGI in the assay on A549 NSCLC was more than 100 µM; in the assay on HCT-15 colon it was more than 100 µM; in the assay on HOP-62 NSCLC, 24.8 µM; with K-562 leukemia, more than 100 µM; in the assay with MOLT-4 leukemia, more than 100 µM; in the assay on NCI/ADR-RES ovarian, 94.3 µM. Besides, the TGI in the assay on OVCAR-3 ovarian was 90.1 µM; with OVCAR-8 ovarian, more than 100 µM; in the assay on SK-OV-3 ovarian, more than 100 µM; with SNB-19 CNS, more than 100 µM.
As for `CCOC(=O)c1nc2c3c(ncn2n1)Oc1c(c(-c2ccccc2)nn1-c1ccccc1)C3c1ccc(OC)c(OC)c1` (stereo not given), the TGI in the assay with A549 NSCLC was more than 100 µM; in the assay on HCT-15 colon, more than 100 µM; in the assay with HOP-62 NSCLC, 48.5 µM; with K-562 leukemia, more than 100 µM; in the assay on MOLT-4 leukemia, more than 100 µM; in the assay on NCI/ADR-RES ovarian it was more than 100 µM. Moreover, the TGI is more than 100 µM in the assay on OVCAR-3 ovarian, 82.5 µM in the assay on OVCAR-8 ovarian, more than 100 µM with SK-OV-3 ovarian and 82.4 µM in the assay with SNB-19 CNS.
`COc1ccc(C[C@@H]2CN(C(=O)c3ccccc3)[C@H](Cc3ccc(O)cc3)CN2C(=O)c2ccccc2)cc1Br`: the TGI in the assay with A549 NSCLC, in the assay on HCT-15 colon, in the assay on HOP-62 NSCLC, with K-562 leukemia, with MOLT-4 leukemia and in the assay on NCI/ADR-RES ovarian was more than 100 µM in each case. Besides, the TGI in the assay on OVCAR-3 ovarian, in the assay with OVCAR-8 ovarian, with SK-OV-3 ovarian and with SNB-19 CNS was more than 100 µM throughout.
Consider `NC1=CN(CCCO)C2=N/C(=C\c3ccco3)C(=O)N12`, for which the TGI with A549 NSCLC, in the assay with HCT-15 colon, with HOP-62 NSCLC, in the assay on K-562 leukemia, with MOLT-4 leukemia and with NCI/ADR-RES ovarian was more than 100 µM in each case. Also, the TGI in the assay with OVCAR-3 ovarian, in the assay on OVCAR-8 ovarian, with SK-OV-3 ovarian and with SNB-19 CNS was more than 100 µM in each case.
`COCCC(NC(=O)C(CC(C)C)NC(=O)OC(C)(C)C)C(N)=O` (stereo not drawn) (Boc-Leu-[hSer](Me)-NH2; configuration not given here): the TGI in the assay with A549 NSCLC, in the assay on HCT-15 colon, in the assay on HOP-62 NSCLC, with K-562 leukemia, in the assay with MOLT-4 leukemia and in the assay with NCI/ADR-RES ovarian was more than 100 µM each time. The TGI in the assay with OVCAR-3 ovarian, with OVCAR-8 ovarian, in the assay with SK-OV-3 ovarian and in the assay on SNB-19 CNS was more than 100 µM throughout.
For `c1ccc(COc2ccc(C[P+](c3ccccc3)(c3ccccc3)c3ccccc3)cc2)cc1`, the TGI in the assay with A549 NSCLC worked out at 11.3 µM; with HCT-15 colon, 13.6 µM; in the assay with HOP-62 NSCLC, 3.37 µM; in the assay with K-562 leukemia, 2.17 µM; in the assay with MOLT-4 leukemia it was 1.94 µM; in the assay on NCI/ADR-RES ovarian it was 49.1 µM. Also, the TGI with OVCAR-3 ovarian came out at 11 µM; in the assay on OVCAR-8 ovarian it was 2.18 µM; with SK-OV-3 ovarian, 3.42 µM; in the assay with SNB-19 CNS, 14.8 µM.
As for `N#Cc1[nH]c(=O)n(-c2ccc([N+](=O)[O-])cc2)c1N`, the TGI in the assay on A549 NSCLC, in the assay on HCT-15 colon, in the assay on HOP-62 NSCLC, with K-562 leukemia, in the assay with MOLT-4 leukemia and in the assay with NCI/ADR-RES ovarian was more than 10 µM each time. For the same compound, the TGI with OVCAR-3 ovarian, in the assay with OVCAR-8 ovarian, in the assay with SK-OV-3 ovarian and with SNB-19 CNS was more than 10 µM each time.
In the case of `COc1ccc(-c2nc3ncccn3c2-c2ccc(S(C)=O)cc2)cc1` (stereo not given), the TGI in the assay on A549 NSCLC, in the assay with HCT-15 colon, in the assay with HOP-62 NSCLC, in the assay on K-562 leukemia, in the assay with MOLT-4 leukemia and in the assay on NCI/ADR-RES ovarian was more than 100 µM throughout. For the same compound, the TGI in the assay on OVCAR-3 ovarian, in the assay on OVCAR-8 ovarian, in the assay with SK-OV-3 ovarian and with SNB-19 CNS was more than 100 µM throughout.
